Here are results for 14 compounds from US7247641B2, “Compounds, derivatives, compositions, preparation and uses” (MGI GP, Inc., priority 2001, dated 2007).

In data set [1] the test system is ischemia and reperfusion of the heart in rabbits. The conditions noted are these: cited from earlier work.
Data set [2] concerns MSU crystal induced neutrophil migration in Swiss albino mice. As to the kind of experiment: MSU crystal-induced neutrophil recruitment (peritonitis gout model). The format is in vivo, mouse. The conditions noted are these: 6 h. On the procedure: Male outbread Swiss albino mice (20-22 g body weight) were purchased from Banton and Kingsman (T. O. strain; Hull, Humberside) and maintained on a standard chow pellet diet with tap water ad libitum and a 12:00 h light/dark cycle. All animals were housed for 1 week prior to experimentation to allow body weight to reach 28-30 g.
1,11b-dihydrobenzopyrano[4,3,2-de ]isoquinolin-1-one was dissolved in 100% DMSO at room temperature at a concentration of 45 mg in 2 ml. The compound was then injected into the peritoneal cavity, so as each mouse received a single dose corresponding to 45 mg/2 ml/kg (e.g. 60 μl for a mouse of 30 g). Control mice received DMSO at 2 ml/kg i.p. A third group of mice which were left untreated were added to control for potential effects of the vehicle. […]
MSU crystal-induced neutrophil recruitment was tested as follows. […] Peritonitis was induced by injection of 3 mg MSU crystals in 0.5 ml PBS (0.1 M, pH 7.4), and the recruitment of neutrophils into the cavity evaluated at the 6 h time point (Getting et al., 1997, J. Pharmacol. Exp. Ther. 283: 123-130). […]
An aliquot (100 μl) of the lavage fluid was then diluted 1:10 in Turk's solution (0.01% crystal violet in 3% acetic acid). The samples were then vortexed and 10 μl of the stained cell solution were placed in a Neubauer haematocymometer and neutrophils numbers counted using a light microscope (Olympus B061). […]

Data set [3] deals with T1, purified recombinant human PARP (Homo sapiens, UniProt P09874).
T1 construct: purchased Trevigan (Gaithersburg, Md.)
The data set can be described thus: PARP enzyme assay, [3H]NAD incorporation, IC50. Format: biochemical. On the procedure:
The reaction is initiated by incubating the mixture at 25° C. After 15 minutes of incubation, the reaction is terminated by adding 500 microliters of ice cold 20% (w/v) trichloroacetic acid. The precipitate formed is transferred onto a glass fiber filter (Packard Unifilter-GF/B) and washed three times with ethanol. After the filter is dried, the radioactivity is determined by scintillation counting.

The test system of data set [4] is focal cerebral ischemia in male Long-Evans rats. As to the kind of experiment: Focal cerebral ischemia: right distal MCA cauterization with temporary bilateral CCA occlusion. Format: in vivo, rat. As to conditions: 24 h, mean±SD. On the procedure: Focal cerebral ischemia is produced by cauterization of the right distal MCA (middle cerebral artery) with bilateral temporary common carotid artery occlusion in male Long-Evans rats for 90 minutes. All procedures performed on the animals are approved by the University Institutional Animal Care and Use Committee of the University of Pennsylvania. A total of 42 rats (weights: 230-340 g) obtained from Charles River were used in this study. The animals fasted overnight with free access to water prior to the surgical procedure.
Two hours prior to MCA occlusion, varying amounts (control, n=14; 5 mg/kg, n=7; 10 mg/kg, n=7; 20 mg/kg, n=7; and 40 mg/kg, n=7) of the compound, 3,4-dihydro-5-[4-(1-piperidinyl)-butoxy]-1(2H)-isoquinolinone (“DPQ”) were dissolved in dimethyl sulfoxide (DMSO) using a sonicator. A volume of 1.28 ml/kg of the resulting solution was injected intraperitoneally into […].
The rats were then anesthetized with halothane (4% for induction and 0.8%-1.2% for the surgical procedure) in a mixture of 70% nitrous oxide and 30% oxygen. The body temperature was monitored by a rectal probe and maintained at 37.5±0.5° C. with a heating blanket regulated by a homeothermiic blanket control unit (Harvard Apparatus Limited, Kent, U.K.). A catheter (PE-50) was placed into the tail artery, and arterial pressure was continuously monitored and recorded on a Grass polygraph recorder (Model 7D, Grass Instruments, Quincy, Mass.). Samples for blood gas analysis (arterial pH, PaO2 and PaCO2) were also taken from the tail artery catheter and measured with a blood gas analyzer (ABL 30, Radiometer, Copenhagen, Denmark). Arterial blood samples were obtained 30 minutes after MCA occlusion.
The head of the animal was positioned in a stereotaxic frame, and a right parietal incision between the right lateral canthus and the external auditory meatus was made. Using a dental drill constantly cooled with saline, a 3 mm burr hole was prepared over the cortex supplied by the right MCA, 4 mm lateral to the sagittal suture and 5 mm caudal to the coronal suture. The dura mater and a thin inner bone layer were kept, care being taken to position the probe over a tissue area devoid of large blood vessels. The flow probe (tip diameter of 1 mm, fiber separation of 0.25 mm) was lowered to the bottom of the cranial burr hole using a micromanipulator. The probe was held stationary by a probe holder secured to the skull with dental cement. The microvascular blood flow in the right parietal cortex was continuously monitored with a laser Doppler flowmeter (FloLab, Moor, Devon, U.K., and Periflux 4001, Perimed, Stockholm, Sweden). […]

Data set [5] deals with PARP. As to conditions: read-out: IC50 for inhibiting PARP; reported by Suto et al.; cited from earlier work.
Where [6] appears, read: approximate values, PARP enzyme assay, read-out: IC50.

Like-named read-outs stand apart in the source and are kept apart here.

T1 sequence (P09874 whole entry): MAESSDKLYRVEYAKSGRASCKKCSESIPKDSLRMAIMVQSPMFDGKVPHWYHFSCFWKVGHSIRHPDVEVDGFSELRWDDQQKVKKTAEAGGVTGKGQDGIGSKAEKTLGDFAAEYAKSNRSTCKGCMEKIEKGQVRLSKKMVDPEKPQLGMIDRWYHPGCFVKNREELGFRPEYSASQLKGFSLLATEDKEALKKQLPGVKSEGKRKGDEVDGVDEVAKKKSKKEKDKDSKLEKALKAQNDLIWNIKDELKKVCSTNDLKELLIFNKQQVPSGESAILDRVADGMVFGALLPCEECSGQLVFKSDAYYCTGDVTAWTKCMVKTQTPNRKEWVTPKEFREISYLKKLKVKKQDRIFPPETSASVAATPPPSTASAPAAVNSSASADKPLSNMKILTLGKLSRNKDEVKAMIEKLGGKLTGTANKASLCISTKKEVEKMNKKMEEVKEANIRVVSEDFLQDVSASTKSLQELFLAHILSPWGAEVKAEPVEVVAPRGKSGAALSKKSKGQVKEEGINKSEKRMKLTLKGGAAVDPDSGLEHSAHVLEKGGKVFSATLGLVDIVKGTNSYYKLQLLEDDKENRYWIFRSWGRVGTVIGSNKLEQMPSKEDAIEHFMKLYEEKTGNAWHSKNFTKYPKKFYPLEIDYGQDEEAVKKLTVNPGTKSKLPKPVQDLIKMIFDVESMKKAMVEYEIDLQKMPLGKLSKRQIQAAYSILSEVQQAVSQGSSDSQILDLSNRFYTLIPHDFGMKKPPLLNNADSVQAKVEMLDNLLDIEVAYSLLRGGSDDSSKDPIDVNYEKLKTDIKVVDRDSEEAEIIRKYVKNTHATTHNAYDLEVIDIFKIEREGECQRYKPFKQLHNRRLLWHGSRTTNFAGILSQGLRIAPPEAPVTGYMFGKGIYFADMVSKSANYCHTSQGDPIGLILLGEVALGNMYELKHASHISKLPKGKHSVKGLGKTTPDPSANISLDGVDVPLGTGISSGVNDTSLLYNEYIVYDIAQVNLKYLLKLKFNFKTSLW

Consider `Oc1cccc2c(O)nccc12` [1,5-dihydroxyisoquinoline], for which the “reduction in infarct size” value in data set [1] (single injection 1 mg/kg) is 38-48%.
Consider `O=C1N=Cc2cccc3c2C1c1ccccc1O3` (stereo not shown) [1,11b-dihydrobenzopyrano[4,3,2-de]isoquinolin-1-one], for which the “Neutrophils, mean ± S.E.” value in data set [2] (45 mg/kg i.p. 1 h prior to 3 mg MSU crystals, n=8, vehicle group 6.30 ± 0.33) is on record as 2.85 ± 0.34 (8)* 10^6 per mouse. Moreover, the “inhibition of cell influx vs. the vehicle group” value in data set [2] (45 mg/kg i.p.) was 55%.
Turning to `NC(=O)c1cccc(N)c1` [3-amino-benzamide], the “reduction in infarct size in the heart” value in data set [1] (single injection 10 mg/kg, one minute before occlusion or before reperfusion) is 32-42%.
Usually IC50 stands for the concentration that gives 50% inhibition. On to `CN1CCN(C(=O)c2cccc(S(=O)(=O)N3CCc4[nH]c(=O)c5ccccc5c4C3)c2)CC1` [Compound 23a], for which the IC50 in data set [3] (setting [6]) came to 441 nM.
Still for that read-out and setting: the same measure for `O=C(c1cccc(S(=O)(=O)N2CCc3[nH]c(=O)c4ccccc4c3C2)c1)N1CCC(N2CCCC2)CC1` [Compound 23b]: 304 nM.
`O=c1[nH]c2c(c3ccccc13)CN(S(=O)(=O)CCN1CCC(N3CCCC3)CC1)CC2` [Compound 24a]: the IC50 in data set [3] turned out to be 80 nM.
With `O=C1NCCc2c(OCCCCN3CCCCC3)cccc21` [DPQ, 3,4-dihydro-5-[4-(1-piperidinyl)-butoxy]-1(2H)-isoquinolinone], the “damaged volume (infarct volume)” value is reported as 106.7±23.2 mm^3 in data set [4] (5 mg/kg i.p. 2 h before and 2 h after MCA occlusion, control 165.2±34.0); 76.4±16.8 mm^3 in data set [4] (10 mg/kg i.p. 2 h before and 2 h after MCA occlusion, control 165.2±34.0); 110.2±42.0 mm^3 in data set [4] (20 mg/kg i.p. 2 h before and 2 h after MCA occlusion, control 165.2±34.0); 135.6±44.8 mm^3 in data set [4] (40 mg/kg i.p., no significant difference from control 165.2±34.0). In addition, the IC50 in data set [5] is 40 nM.
One may read the melting point as the temperature, or range, at which the solid turns liquid. Take `O=C1NCN2c3ccccc3Sc3cccc1c32` [Example 1, 1,2-Dihydro-7-thia-2,11b-diaza-benzo[de]anthracen-3-one]: the melting point was 187 to 192 °C.
`O=C1NCN2c3ccc(S(=O)(=O)NCCN4CCOCC4)cc3Sc3cccc1c32` [Example 3, 3-Oxo-2,3-dihydro-1H-7-thia-2,11b-diaza-benzo[de]anthracene-9-(N2-morpholin-4-yl-ethyl)sulfonamide] displayed a melting point of 227 to 228 °C.
`O=C1NCN2c3ccc(S(=O)(=O)NCCN4CCCCC4)cc3Sc3cccc1c32` [Example 4, 3-Oxo-2,3-dihydro-1H-7-thia-2,11b-diaza-benzo[de]anthracene-9-(N-2-piperidin-1-yl-ethyl)-sulfonamide]: the melting point lay within 170 to 172 °C.
As for `O=C1NCN2c3ccc([N+](=O)[O-])cc3Sc3cccc1c32` [Example 5, 9-Nitro-1,2-dihydro-7-thia-2,11b-diaza-benzo[de]anthracen-3-one], the melting point is 205 to 208 °C.
With `O=C1NCN2c3ccccc3Oc3cccc1c32` [Example 6, 1,2-Dihydro-7-oxa-2,11b-diaza-benzo[de]anthracen-3-one], the melting point was more than 300 °C.
The same measure, in the same setting: the result for `O=C1NCn2c3ccccc3c(=O)c3cccc1c32` [Example 8, 1,2-Dihydro-2,11b-diaza-benzo[de]anthracene-3,7-dione] reads 250 to 255 °C.
On the same count and under the same terms, the same measure for `O=C1NC(c2ccccc2)n2c3ccccc3c(=O)c3cccc1c32` (stereo not shown) [Example 9]: 288 to 292 °C.
